Source: PubChem BioAssay AID1963841 (Molecular Pharmacology Branch, DTP, NCI, 2024)

Tested on: 439559-082-T-J2-PDC spheroid viability
Assay: Anticancer human tumor 439559-082-T-J2-PDC patient-derived colon adenocarcinoma cell line growth inhibition [POLQ]
Conditions: spheroids with HUVEC and MSC; for IC50: curve of first compound; for viability, T/C: stronger effect = lower value
Outline: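 Complex spheroid viability model combining PDC tumour cells with endothelial (HUVEC) and MSC stromal cells. Novobiocin, ART-558 or RP6685 were tested singly and in combination with standard and investigational anticancer drugs. Each was titrated in half-log steps from near clinical Cmax, or from 10 microM where Cmax was unknown.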

[1] = second compound 0.0316 µM, first compound 0.0316 µM
[2] = second compound 0.0316 µM, first compound 0.1 µM
[3] = second compound 0.0316 µM, first compound 0.316 µM
[4] = second compound 0.0316 µM, first compound 1 µM
[5] = second compound 0.0316 µM, first compound 3.16 µM
[6] = second compound 0.0316 µM, first compound 10 µM
[7] = second compound 0.1 µM, first compound 0.0316 µM
[8] = second compound 0.1 µM, first compound 0.1 µM
[9] = second compound 0.1 µM, first compound 0.316 µM
[10] = second compound 0.1 µM, first compound 1 µM
[11] = second compound 0.1 µM, first compound 3.16 µM
[12] = second compound 0.1 µM, first compound 10 µM
[13] = second compound 0.316 µM, first compound 0.0316 µM
[14] = second compound 0.316 µM, first compound 0.1 µM
[15] = second compound 0.316 µM, first compound 0.316 µM
[16] = second compound 0.316 µM, first compound 1 µM
[17] = second compound 0.316 µM, first compound 3.16 µM
[18] = second compound 0.316 µM, first compound 10 µM
[19] = second compound 1 µM, first compound 0.0316 µM
[20] = second compound 1 µM, first compound 0.1 µM
[21] = second compound 1 µM, first compound 0.316 µM
[22] = second compound 1 µM, first compound 1 µM
[23] = second compound 1 µM, first compound 3.16 µM
[24] = second compound 1 µM, first compound 10 µM
[25] = second compound 3.16 µM, first compound 0.0316 µM
[26] = second compound 3.16 µM, first compound 0.1 µM
[27] = second compound 3.16 µM, first compound 0.316 µM
[28] = second compound 3.16 µM, first compound 1 µM
[29] = second compound 3.16 µM, first compound 3.16 µM
[30] = second compound 3.16 µM, first compound 10 µM
[31] = second compound 10 µM, first compound 0.0316 µM
[32] = second compound 10 µM, first compound 0.1 µM
[33] = second compound 10 µM, first compound 0.316 µM
[34] = second compound 10 µM, first compound 1 µM
[35] = second compound 10 µM, first compound 3.16 µM
[36] = second compound 10 µM, first compound 10 µM
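Note: spheroids exposed to compounds for seven days before readout.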
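Throughout, for viability, T/C: 100% = DMSO vehicle control viability.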

CCc1cc2c(N3CCc4c(cc(Cn5ccnc5)cc4-c4cn(C)nc4C(F)(F)F)C3=O)cc(C)nc2c(OC)n1 + Nc1ccc(C#CCN(C(=O)Cc2ncc(C(F)(F)F)cc2C(F)(F)F)c2ccc(F)cc2)nn1
IC50 (second compound 0.0316 µM): > 10 µM
IC50 (second compound 0.1 µM): > 10 µM
IC50 (second compound 0.316 µM): > 10 µM
IC50 (second compound 1 µM): > 10 µM
IC50 (second compound 3.16 µM): > 10 µM
IC50 (second compound 10 µM): > 10 µM
viability, T/C [1]: 97%
viability, T/C [2]: 96.8%
viability, T/C [3]: 95.3%
viability, T/C [4]: 93.2%
viability, T/C [5]: 98.2%
viability, T/C [6]: 92.7%
viability, T/C [7]: 108%
viability, T/C [8]: 87.9%
viability, T/C [9]: 89.7%
viability, T/C [10]: 95.9%
viability, T/C [11]: 91.9%
viability, T/C [12]: 96.2%
viability, T/C [13]: 102%
viability, T/C [14]: 92.2%
viability, T/C [15]: 95.7%
viability, T/C [16]: 96%
viability, T/C [17]: 96.1%
viability, T/C [18]: 86.5%
viability, T/C [19]: 94.5%
viability, T/C [20]: 95%
viability, T/C [21]: 89.3%
viability, T/C [22]: 85.3%
viability, T/C [23]: 104%
viability, T/C [24]: 88.6%
viability, T/C [25]: 101%
viability, T/C [26]: 93.3%
viability, T/C [27]: 85.9%
viability, T/C [28]: 86.3%
viability, T/C [29]: 92.6%
viability, T/C [30]: 86.3%
viability, T/C [31]: 98.5%
viability, T/C [32]: 95.3%
viability, T/C [33]: 80.4%
viability, T/C [34]: 96%
viability, T/C [35]: 89.1%
viability, T/C [36]: 86.8%

CC1COCCN1c1cc(C2(O)CC3CCC(C2)O3)c2cnn(-c3ccn[nH]3)c2n1 (stereo not drawn) + Nc1ccc(C#CCN(C(=O)Cc2ncc(C(F)(F)F)cc2C(F)(F)F)c2ccc(F)cc2)nn1
IC50 (second compound 0.0316 µM): > 10 µM
IC50 (second compound 0.1 µM): > 10 µM
IC50 (second compound 0.316 µM): > 10 µM
IC50 (second compound 1 µM): > 10 µM
IC50 (second compound 3.16 µM): > 10 µM
IC50 (second compound 10 µM): > 10 µM
viability, T/C [1]: 97.8%
viability, T/C [2]: 88.4%
viability, T/C [3]: 77%
viability, T/C [4]: 62.4%
viability, T/C [5]: 59.4%
viability, T/C [6]: 51.4%
viability, T/C [7]: 102%
viability, T/C [8]: 85.8%
viability, T/C [9]: 79.4%
viability, T/C [10]: 60.3%
viability, T/C [11]: 56.9%
viability, T/C [12]: 54.4%
viability, T/C [13]: 126%
viability, T/C [14]: 73.7%
viability, T/C [15]: 66.8%
viability, T/C [16]: 60.1%
viability, T/C [17]: 59.2%
viability, T/C [18]: 50.2%
viability, T/C [19]: 97.1%
viability, T/C [20]: 100%
viability, T/C [21]: 78.2%
viability, T/C [22]: 66.7%
viability, T/C [23]: 60.6%
viability, T/C [24]: 55%
viability, T/C [25]: 82.5%
viability, T/C [26]: 80.5%
viability, T/C [27]: 82.3%
viability, T/C [28]: 60.6%
viability, T/C [29]: 59.1%
viability, T/C [30]: 58%
viability, T/C [31]: 91.7%
viability, T/C [32]: 80.7%
viability, T/C [33]: 66.9%
viability, T/C [34]: 53.1%
viability, T/C [35]: 55.3%
viability, T/C [36]: 48.6%

CCCS(=O)(=O)Nc1ccc(F)c(C(=O)c2c[nH]c3ncc(-c4ccc(Cl)cc4)cc23)c1F + Cc1cccc(N(C)C(=O)C2C(O)CCN2c2nc(C)cc(C(F)(F)F)c2C#N)c1
IC50 (second compound 0.0316 µM): > 10 µM
IC50 (second compound 0.1 µM): > 10 µM
IC50 (second compound 0.316 µM): > 10 µM
IC50 (second compound 1 µM): > 10 µM
IC50 (second compound 3.16 µM): > 10 µM
IC50 (second compound 10 µM): > 10 µM
viability, T/C [1]: 103%
viability, T/C [2]: 106%
viability, T/C [3]: 92.1%
viability, T/C [4]: 97%
viability, T/C [5]: 94.8%
viability, T/C [6]: 80.3%
viability, T/C [7]: 100%
viability, T/C [8]: 96.1%
viability, T/C [9]: 91.5%
viability, T/C [10]: 94.4%
viability, T/C [11]: 113%
viability, T/C [12]: 75.8%
viability, T/C [13]: 93.5%
viability, T/C [14]: 94.4%
viability, T/C [15]: 106%
viability, T/C [16]: 86%
viability, T/C [17]: 99.4%
viability, T/C [18]: 79.5%
viability, T/C [19]: 96.2%
viability, T/C [20]: 103%
viability, T/C [21]: 92.8%
viability, T/C [22]: 95.3%
viability, T/C [23]: 91.5%
viability, T/C [24]: 78.3%
viability, T/C [25]: 99%
viability, T/C [26]: 90.2%
viability, T/C [27]: 94.9%
viability, T/C [28]: 102%
viability, T/C [29]: 102%
viability, T/C [30]: 74.4%
viability, T/C [31]: 101%
viability, T/C [32]: 96.3%
viability, T/C [33]: 82.8%
viability, T/C [34]: 90.2%
viability, T/C [35]: 90.2%
viability, T/C [36]: 70.5%

C#Cc1c(F)ccc2cc(O)cc(-c3ncc4c(N5CC6CCC(C5)N6)nc(OCC56CCCN5CC(F)C6)nc4c3F)c12 (stereo not drawn) + Cc1cccc(N(C)C(=O)C2C(O)CCN2c2nc(C)cc(C(F)(F)F)c2C#N)c1
IC50 (second compound 0.0316 µM): > 10 µM
IC50 (second compound 0.1 µM): > 10 µM
IC50 (second compound 0.316 µM): > 10 µM
IC50 (second compound 1 µM): > 10 µM
IC50 (second compound 3.16 µM): > 10 µM
IC50 (second compound 10 µM): 7.64 µM
viability, T/C [1]: 92%
viability, T/C [2]: 86.6%
viability, T/C [3]: 72.3%
viability, T/C [4]: 63.1%
viability, T/C [5]: 61.9%
viability, T/C [6]: 52.5%
viability, T/C [7]: 100%
viability, T/C [8]: 81.5%
viability, T/C [9]: 72.1%
viability, T/C [10]: 70.7%
viability, T/C [11]: 59.2%
viability, T/C [12]: 55%
viability, T/C [13]: 99%
viability, T/C [14]: 87.6%
viability, T/C [15]: 72%
viability, T/C [16]: 69.9%
viability, T/C [17]: 61.2%
viability, T/C [18]: 60.3%
viability, T/C [19]: 87.6%
viability, T/C [20]: 78.1%
viability, T/C [21]: 72.4%
viability, T/C [22]: 66.7%
viability, T/C [23]: 62%
viability, T/C [24]: 51.8%
viability, T/C [25]: 94.5%
viability, T/C [26]: 80.9%
viability, T/C [27]: 69.8%
viability, T/C [28]: 65.7%
viability, T/C [29]: 63.2%
viability, T/C [30]: 52.5%
viability, T/C [31]: 81.2%
viability, T/C [32]: 69.1%
viability, T/C [33]: 69%
viability, T/C [34]: 58.1%
viability, T/C [35]: 58.2%
viability, T/C [36]: 46.7%
